In the Kinase Knowledgebase extract (Sharma et al. 2016):
pIC50: −log10 of the molar value.

Molecular target: ROCK2 (human) (UniProt O75116)
Experiment: Assessment of ROCK2 Kinase Activity

Sequence of ROCK2 (human) (O75116 whole entry, looked up): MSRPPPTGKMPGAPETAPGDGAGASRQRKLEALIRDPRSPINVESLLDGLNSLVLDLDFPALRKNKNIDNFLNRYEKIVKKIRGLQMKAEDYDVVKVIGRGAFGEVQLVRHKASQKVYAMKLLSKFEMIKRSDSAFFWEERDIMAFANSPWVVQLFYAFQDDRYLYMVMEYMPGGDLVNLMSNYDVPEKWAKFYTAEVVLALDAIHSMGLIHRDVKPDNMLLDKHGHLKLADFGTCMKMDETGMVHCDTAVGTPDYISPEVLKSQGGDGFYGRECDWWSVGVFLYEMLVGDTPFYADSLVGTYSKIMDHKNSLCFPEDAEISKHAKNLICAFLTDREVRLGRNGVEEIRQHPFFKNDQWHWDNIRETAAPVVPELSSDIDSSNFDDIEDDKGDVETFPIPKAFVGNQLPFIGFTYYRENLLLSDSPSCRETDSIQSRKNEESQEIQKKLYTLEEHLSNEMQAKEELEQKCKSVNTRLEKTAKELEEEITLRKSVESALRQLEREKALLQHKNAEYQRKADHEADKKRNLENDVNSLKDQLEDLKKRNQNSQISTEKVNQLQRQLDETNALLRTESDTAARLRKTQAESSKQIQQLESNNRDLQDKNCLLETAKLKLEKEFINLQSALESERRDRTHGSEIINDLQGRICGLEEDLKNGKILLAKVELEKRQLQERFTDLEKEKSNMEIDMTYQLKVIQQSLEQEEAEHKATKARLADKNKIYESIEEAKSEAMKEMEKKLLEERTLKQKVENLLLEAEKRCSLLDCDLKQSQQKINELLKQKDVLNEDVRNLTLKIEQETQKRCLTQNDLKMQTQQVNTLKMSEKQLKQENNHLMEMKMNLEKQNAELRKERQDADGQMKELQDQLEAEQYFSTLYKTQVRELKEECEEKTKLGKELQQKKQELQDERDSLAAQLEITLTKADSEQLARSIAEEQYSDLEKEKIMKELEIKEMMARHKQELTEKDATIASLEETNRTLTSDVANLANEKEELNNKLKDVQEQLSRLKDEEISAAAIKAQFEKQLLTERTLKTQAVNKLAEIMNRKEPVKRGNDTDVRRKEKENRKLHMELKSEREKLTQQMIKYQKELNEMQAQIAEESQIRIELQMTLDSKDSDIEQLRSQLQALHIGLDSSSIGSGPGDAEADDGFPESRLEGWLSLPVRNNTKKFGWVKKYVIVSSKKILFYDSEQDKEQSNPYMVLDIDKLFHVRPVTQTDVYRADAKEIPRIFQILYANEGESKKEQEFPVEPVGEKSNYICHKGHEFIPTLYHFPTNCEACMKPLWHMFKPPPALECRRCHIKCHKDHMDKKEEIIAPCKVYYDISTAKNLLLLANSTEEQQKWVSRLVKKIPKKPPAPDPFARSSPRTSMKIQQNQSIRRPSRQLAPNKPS

pIC50, ≥ 6.00:
NC1CC(Oc2cc3cc[nH]c(=O)c3cc2Cl)C1 (centres undefined)
CCC[C@]1(N)CCC[C@@H](Oc2cc3cc[nH]c(=O)c3cc2Cl)CCC1
Cc1cc2c(=O)[nH]ccc2cc1O[C@@H]1CCC[C@H](N)CC1
N[C@H]1C[C@H](COc2cc3cc[nH]c(=O)c3cc2Cl)C1
O=c1[nH]ccc2cc(O[C@H]3CC[C@H](N4CCCC4)CC3)c(Cl)cc12
O=c1[nH]ccc2cc(O[C@H]3CC[C@@H](N4CCOCC4)CC3)c(Cl)cc12
N[C@H]1CC[C@H](Oc2cc3cc[nH]c(=O)c3cc2Cl)C1
O=c1[nH]ccc2cc(OC3CCC(N4CCCCC4)CC3)c(Cl)cc12 (centres undefined)
NC(=O)C1CCN(C2CCC(Oc3cc4cc[nH]c(=O)c4cc3Cl)CC2)CC1 (centres undefined)
O=c1[nH]ccc2cc(O[C@H]3CC[C@H](N4CCOCC4)CC3)c(Cl)cc12
CN1CCN([C@H]2CC[C@H](Oc3cc4cc[nH]c(=O)c4cc3Cl)CC2)CC1
CCC[C@]1(N)CCC[C@H](Oc2cc3cc[nH]c(=O)c3cc2Cl)CCC1
O=C(CC1CCNCC1)N[C@H]1CC[C@@H](Oc2cc3cc[nH]c(=O)c3cc2Cl)CC1
N[C@H]1CCC[C@@H](Oc2cc3cc[nH]c(=O)c3cc2Cl)CC1
O=C(O)CN[C@H]1CC[C@@H](Oc2cc3cc[nH]c(=O)c3cc2Cl)CC1
O=C(CCC1CCNCC1)N[C@H]1CC[C@@H](Oc2cc3cc[nH]c(=O)c3cc2Cl)CC1
O=c1[nH]ccc2cc(O[C@H]3CC[C@@H](N4CCCC4)CC3)c(Cl)cc12
CN1CCN([C@H]2CC[C@@H](Oc3cc4cc[nH]c(=O)c4cc3Cl)CC2)CC1
N[C@@H]1CC[C@H](Oc2ccc3c(=O)[nH]ccc3c2)C1
